Several values for one entry are separate records, joined by “and”; a condition that tells them apart may be missing. Identical values can stand only once. Entries after “also recorded” stand apart in the source; their conditions may differ. Like-named read-outs stand apart in the source and are kept apart here. Marks after values point to notes of the source that are not given here.
Key:
[1] = target: electric eel acetylcholinesterase (EeAChE) (Electrophorus electricus, UniProt O42275); test: Enzymatic kinetic study, EeAChE; assay type: biochemical; settings: AChE
Protocol: (§1) The enzymatic kinetics of cholinesterase inhibition were determined according to an adapted Ellman’s method. All of the solutions were prepared at 20 °C in 0.02 M Tris-HCl buffer (pH 7.5; ionic strength ~0.02 M), stock solutions of test compounds were prepared in DMSO:EtOH (7:3) mixture (20 mM), and the experiment was conducted in triplicate. To a flat-bottom 96-well transparent plate (path length of 0.6 cm) were added 150 μL of treatment solutions with inhibitors 1a, 1h, and 1j at two different concentrations (Table S1) distributed in eight sets of triplicate each. Eight sets of untreated triplicates were used as a negative control. Following, there were added 60 μL of 5,5′-Dithiobis(2-nitrobenzoic acid) (DTNB, Ellman’s reagent) at 1.1 mM and 30 μL of electric eel acetylcholinesterase (EeAChE) or equine serum butyrylcholinesterase (EqBuChE) at 0.20 U/mL in the presence of 1 mg/mL bovine serum albumin (BSA). […] Ki, Ki’ (competitive and noncompetitive inhibition constants, respectively), Km (Michaelis-Menten constant), and Vmax values were calculated with Graphpad Prism v7.0 using the non-linear regression models for enzyme kinetics inhibition and enzyme kinetics–substrate vs. velocity.

[2] = target: T1, equine serum BChE [EqBChE] (Equus caballus, UniProt P81908); test: biochemical; settings: Ellman method, read-out: IC50(nM) ± SD BChE (EqBChE)
T1 construct: equine serum BChE [EqBChE]; from tissue; host or cells: equine serum
Protocol: (§2) The anticholinesterase activity was determined using Ellman’s method, adapted as follows. […] Subsequently, 60 μL of 5,5′-dithiobis(2-nitrobenzoic acid) (DTNB, 1.1 mM) and 30 μL of enzyme solution (electric eel AChE [EeAChE], human AChE [hAChE], or equine serum BChE [EqBChE], 0.20 U/mL) containing 1 mg/mL bovine serum albumin (BSA) were added. […] Enzyme activity was calculated as the percentage relative to untreated controls, subtracting the blank reference. IC50 values were derived via non-linear regression analysis of dose–response curves (Figure S4) using GraphPad Prism v7.0.

human AChE [hAChE] = human AChE [hAChE] (Homo sapiens, UniProt P22303); test: biochemical; settings: for IC50: Human AChE, Ellman method, read-out: IC50(nM) ± SD AChE (hAChE) (converted); for SI: SI = EqBChE IC50/hAChE
Protocol: as §2

[3] = Cytotoxicity (neurotoxicity) MTT assay in SH-SY5Y; assay type: cell-based; settings: human, SH-SY5Y neuroblastoma cells; for viability at 24 h, 12.5 µM / viability at 24 h, 25 µM / viability at 24 h, 50 µM: MTT, read-out: Cell viability (% of control); for viability at 24 h: up to 25 μM, read-out: cell viability
Protocol: (§3) The immortalized human neuroblastoma cell line (SH-SY5Y–ATCC: CRL-2226; BCRJ:0223) was used to evaluate cytotoxicity. The cell line was cultured in Dulbecco’s Modified Eagle’s Medium and F12 in a 1:1 ratio (DMEM:F12; Sigma-Aldrich code 0697, Brazil) supplemented with 10% fetal bovine serum (FBS; Sigma-Aldrich code F2442, Brazil) and 1% streptomycin/penicillin (10,000 U/mL and 10,000 μg/mL, respectively; Nova Biotecnologia code BR30110-01, Cotia, SP, Brazil) and incubated at 37 °C with 5% CO2. The culture medium was replaced every 48 h, until the cells reached semi-confluence (≥70%). Cell passage was carried out with the aid of trypsin-EDTA/0.25% solution (Nova Biotecnologia, Brazil) and divided between 5 or 8 mL culture volumes depending on the respective bottles (25 or 75 cm^2) used.
(§4) The in vitro cytotoxicity assay evaluated cell viability using the [3-(4,5-dimethylthiazol-2yl)-2,5-diphenyl tetrazolium] bromide (MTT) reduction assay. Cells were seeded at an initial density of 5.0 × 10^4 cells/well in 96-well plates in a volume of 200 µL. […] In the next step, the culture medium was replaced by the sample solution previously described (Section 3.4.2). After 24 h exposure, the medium was replaced with 100 μL of MTT in phosphate-buffer saline (PBS), pH 7.4, at a concentration of 0.5 mg.mL^−1/well and the plates were incubated for an additional 3 h. Then, the MTT solution was removed, and 100 μL of DMSO was added to solubilize the formazan crystals. The cell viability was measured by absorbance at 562 nm using a Microplate Absorbance Reader (Kasuaki, Brazil). All concentrations tested were evaluated in nine replicates (n = 9). The variation in results was observed using ANOVA followed by Tukey’s test for multiple comparisons through GraphPad Prism v5^TM with a significance level of p < 0.05.

[4] = system: SH-SY5Y neuroblastoma cells; test: Cytotoxicity (neurotoxicity) MTT assay in SH-SY5Y; assay type: cell-based; settings: up to 50 µM
Protocol: as §3, §4

[5] = target: T2, equine serum butyrylcholinesterase (EqBuChE) (Equus caballus, UniProt P81908); test: Enzymatic kinetic study, EqBChE; assay type: biochemical; settings: BChE
T2 construct: equine serum BChE [EqBChE]; from tissue; host or cells: equine serum
Protocol: as §1

[6] = enzyme-substrate complex, global non-linear regression (Table 2)
[7] = free enzyme (Table S3), read-out: Ki ± SE (95% CI)
[8] = global non-linear regression, mixed inhibition (Table S3)

Chain of electric eel acetylcholinesterase (EeAChE) (O42275 24-633): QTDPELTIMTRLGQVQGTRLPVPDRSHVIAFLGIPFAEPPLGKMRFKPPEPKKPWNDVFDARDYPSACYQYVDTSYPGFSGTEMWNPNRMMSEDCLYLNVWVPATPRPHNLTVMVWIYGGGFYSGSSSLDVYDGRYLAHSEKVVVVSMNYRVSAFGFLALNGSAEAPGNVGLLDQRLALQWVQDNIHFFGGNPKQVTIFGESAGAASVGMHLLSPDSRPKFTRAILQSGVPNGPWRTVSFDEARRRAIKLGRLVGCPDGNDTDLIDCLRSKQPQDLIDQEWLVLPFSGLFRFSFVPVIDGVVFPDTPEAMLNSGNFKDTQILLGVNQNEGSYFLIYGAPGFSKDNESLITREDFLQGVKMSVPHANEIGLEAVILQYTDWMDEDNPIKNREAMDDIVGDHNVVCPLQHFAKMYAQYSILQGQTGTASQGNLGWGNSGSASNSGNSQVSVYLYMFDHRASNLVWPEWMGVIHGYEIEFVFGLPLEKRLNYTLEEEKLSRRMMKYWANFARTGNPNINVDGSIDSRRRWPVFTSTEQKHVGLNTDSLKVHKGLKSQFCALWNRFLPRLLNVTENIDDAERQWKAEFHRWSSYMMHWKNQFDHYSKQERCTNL
Chain of human AChE [hAChE] (P22303 32-614): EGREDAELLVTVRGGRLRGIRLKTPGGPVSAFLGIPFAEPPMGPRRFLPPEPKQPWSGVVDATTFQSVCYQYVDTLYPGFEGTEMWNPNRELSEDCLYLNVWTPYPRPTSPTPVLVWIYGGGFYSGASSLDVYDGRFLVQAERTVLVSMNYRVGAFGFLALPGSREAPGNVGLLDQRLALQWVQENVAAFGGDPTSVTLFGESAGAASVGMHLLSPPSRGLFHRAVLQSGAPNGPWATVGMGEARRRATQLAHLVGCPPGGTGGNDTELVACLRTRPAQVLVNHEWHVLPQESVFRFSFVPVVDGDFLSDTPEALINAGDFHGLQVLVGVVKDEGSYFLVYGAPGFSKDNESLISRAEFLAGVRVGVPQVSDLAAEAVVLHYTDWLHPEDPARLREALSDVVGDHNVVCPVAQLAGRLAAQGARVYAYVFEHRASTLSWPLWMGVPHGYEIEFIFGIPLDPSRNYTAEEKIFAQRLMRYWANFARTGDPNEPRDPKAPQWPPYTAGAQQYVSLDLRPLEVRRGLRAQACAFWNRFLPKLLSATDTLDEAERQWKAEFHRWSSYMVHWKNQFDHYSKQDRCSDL
T2 sequence (P81908 whole entry): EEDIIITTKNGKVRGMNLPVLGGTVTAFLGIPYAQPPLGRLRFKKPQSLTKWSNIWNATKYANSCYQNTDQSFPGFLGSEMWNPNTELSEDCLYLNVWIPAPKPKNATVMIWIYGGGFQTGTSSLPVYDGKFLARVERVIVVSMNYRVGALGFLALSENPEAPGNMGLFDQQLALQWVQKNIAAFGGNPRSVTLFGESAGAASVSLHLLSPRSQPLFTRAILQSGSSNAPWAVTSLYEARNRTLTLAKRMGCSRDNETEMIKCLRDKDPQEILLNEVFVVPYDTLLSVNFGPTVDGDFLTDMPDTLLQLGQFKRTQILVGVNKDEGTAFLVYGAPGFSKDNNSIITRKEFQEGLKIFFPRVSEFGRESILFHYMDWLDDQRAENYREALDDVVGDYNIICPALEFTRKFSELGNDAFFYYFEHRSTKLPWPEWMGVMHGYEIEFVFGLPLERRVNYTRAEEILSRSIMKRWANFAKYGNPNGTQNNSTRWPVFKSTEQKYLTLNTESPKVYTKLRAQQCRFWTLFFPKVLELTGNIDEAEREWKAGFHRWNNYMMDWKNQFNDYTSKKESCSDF
T1 sequence (P81908 whole entry): as above

Compound	IC50 [2] [nM]	IC50 (human AChE [hAChE]) [nM]	SI (human AChE [hAChE])	viability at 24 h, 12.5 µM [3] [%]	viability at 24 h, 25 µM [3] [%]	viability at 24 h, 50 µM [3] [%]	viability at 24 h [3] [%]	neurotoxicity [4]	further results
O=c1oc2cc(OCCN3CCCCC3)ccc2cc1-c1cn(Cc2ccccc2)nn1 [Compound 1h, 3-(1-Benzyl-1H-1,2,3-triazol-4-yl)-7-(2-(piperidin-1-yl)ethoxy)-2H-chromen-2-one]	3790 ± 400	115	33	121	121	111	≥ 70	non-neurotoxic; also recorded: no neurotoxicity	inhibition mechanism ([1]; Lineweaver-Burk plots): mixed-type inhibition; Ki’ (nM) ± SE [1, 6]: 7.17 ± 1.48 nM; Ki [1, 7]: 4.73 ± 0.878 nM; Ki ([1]; free enzyme, global non-linear regression to mixed-inhibition equation (Table 2), read-out: Ki (nM) ± SE): 4.73 ± 0.88 nM; α ± SE (95% CI) [1, 8]: 1.516 ± 0.3136; Vmax ± SD ([1]; inhibitor 0.005 μM): 4.45 ± 0.02231 1 × 10^3 nM/min and 4.45 ± 0.02 1 × 10^3 nM/min; Vmax ± SD ([1]; inhibitor 0.007 μM): 3.19 ± 0.0981 1 × 10^3 nM/min and 3.19 ± 0.010 1 × 10^3 nM/min; inhibition mechanism ([5]; Lineweaver-Burk plots): mixed-type inhibition; Ki ([5]; competitive inhibition constant (Table S2), read-out: Ki (nM) ± SD): 980 ± 24 nM; Ki’ (nM) ± SE [5, 6]: 4830 ± 620 nM; Ki [5, 7]: 1250 ± 151 nM; Ki ([5]; free enzyme, global non-linear regression (Table 2), read-out: Ki (nM) ± SE): 1250 ± 150 nM; α ± SE (95% CI) [5, 8]: 3.852 ± 0.4265; Vmax ± SD ([5]; inhibitor 2.8 μM): 3.62 ± 0.1358 1 × 10^3 nM/min and 3.62 ± 0.14 1 × 10^3 nM/min; Vmax ± SD ([5]; inhibitor 4.8 μM): 3.40 ± 0.0349 1 × 10^3 nM/min and 3.40 ± 0.03 1 × 10^3 nM/min
O=c1oc2cc(OCCCN3CCCCC3)ccc2cc1-c1cn(Cc2ccccc2)nn1 [Compound 1q, 3-(1-Benzyl-1H-1,2,3-triazol-4-yl)-7-(3-(piperidin-1-yl)propoxy)-2H-chromen-2-one]	3560 ± 190	1410	~2 ^e,f	99	105	84	≥ 70	non-neurotoxic	–

— PMC12472947 (Pharmaceuticals, 2025)
